Measurements published in patent US11447466B2, “Substituted indole compounds useful as inhibitors of TLR7/8/9” (BRISTOL-MYERS SQUIBB COMPANY, priority 2017, dated 2022).

What was measured:
Format in all cases: cell-based
human TLR9 = target: T1, human TLR9 (Homo sapiens, UniProt Q9NR96); assay: TLR9 inhibition reporter assay (HEK-Blue SEAP reporter, ODN2006 stimulation); conditions: HEK-Blue cells overexpressing human TLR9, SEAP reporter, ODN2006 5 nM, 22 hour incubation
T1 construct: host or cells: HEK-Blue cells
T1 sequence (Q9NR96 26-1032): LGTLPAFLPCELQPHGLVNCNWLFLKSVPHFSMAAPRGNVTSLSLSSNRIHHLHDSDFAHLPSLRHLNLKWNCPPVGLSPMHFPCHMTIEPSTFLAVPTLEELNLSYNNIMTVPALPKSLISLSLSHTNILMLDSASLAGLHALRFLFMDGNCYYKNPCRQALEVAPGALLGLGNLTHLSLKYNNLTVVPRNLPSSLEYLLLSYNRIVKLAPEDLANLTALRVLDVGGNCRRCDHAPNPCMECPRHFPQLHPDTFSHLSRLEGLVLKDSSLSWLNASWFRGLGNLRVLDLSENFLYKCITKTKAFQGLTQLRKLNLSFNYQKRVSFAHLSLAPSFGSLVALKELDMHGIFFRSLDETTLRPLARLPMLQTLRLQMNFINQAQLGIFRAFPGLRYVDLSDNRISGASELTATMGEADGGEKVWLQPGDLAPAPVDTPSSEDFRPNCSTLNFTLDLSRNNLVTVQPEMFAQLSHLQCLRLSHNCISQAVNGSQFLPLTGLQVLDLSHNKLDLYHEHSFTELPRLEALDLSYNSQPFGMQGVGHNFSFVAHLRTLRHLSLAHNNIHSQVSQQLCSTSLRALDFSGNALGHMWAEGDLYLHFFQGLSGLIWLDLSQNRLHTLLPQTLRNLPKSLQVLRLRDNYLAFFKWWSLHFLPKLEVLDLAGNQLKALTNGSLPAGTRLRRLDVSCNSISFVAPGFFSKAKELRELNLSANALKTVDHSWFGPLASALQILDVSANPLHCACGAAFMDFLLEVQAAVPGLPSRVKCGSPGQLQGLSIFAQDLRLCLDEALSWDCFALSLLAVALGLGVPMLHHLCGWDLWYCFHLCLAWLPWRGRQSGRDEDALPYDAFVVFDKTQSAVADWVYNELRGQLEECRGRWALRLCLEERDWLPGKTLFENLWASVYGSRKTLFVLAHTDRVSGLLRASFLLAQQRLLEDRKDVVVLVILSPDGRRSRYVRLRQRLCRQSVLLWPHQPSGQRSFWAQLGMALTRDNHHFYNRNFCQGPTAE
Description: (§1) TLR7/8/9 Inhibition Reporter Assays
(§2) HEK-Blue™-cells (Invivogen) overexpressing human TLR7, TLR8 or TLR9 receptors were used for screening inhibitors of these receptors using an inducible SEAP (secreted embryonic alkaline phosphatase) reporter gene under the control of the IFN-β minimal promoter fused to five NF-κB and AP-1-binding sites. Briefly, cells are seeded into Greiner 384 well plates (15000 cells per well for TLR7, 20,000 for TLR8 and 25,000 for TLR9) and then treated with test compounds in DMSO to yield a final dose response concentration range of 0.05 nM-50 μM. After a 30 minute compound pre-treatment at room temperature, the cells are then stimulated with a TLR7 ligand (gardiquimod at a final concentration of 7.5 μM), TLR8 ligand (R848 at a final concentration of 15.9 μM) or TLR9 ligand (ODN2006 at a final concentration of 5 nM) to activate NF-κB and AP-1 which induce the production of SEAP. After a 22 hour incubation at 37° C., 5% CO2, SEAP levels are determined with the addition of HEK-Blue™ Detection reagent (Invivogen), a cell culture medium that allows for detection of SEAP, according to manufacturer's specifications. The percent inhibition is determined as the % reduction in the HEK-Blue signal present in wells treated with agonist plus DMSO alone compared to wells treated with a known inhibitor.

human TLR8 = target: T2, human TLR8 (Homo sapiens, UniProt Q9NR97); assay: TLR8 inhibition reporter assay (HEK-Blue SEAP reporter, R848 stimulation); conditions: HEK-Blue cells overexpressing human TLR8, SEAP reporter, R848 15.9 μM, 22 hour incubation
T2 construct: host or cells: HEK-Blue cells
T2 sequence (Q9NR97 27-1041): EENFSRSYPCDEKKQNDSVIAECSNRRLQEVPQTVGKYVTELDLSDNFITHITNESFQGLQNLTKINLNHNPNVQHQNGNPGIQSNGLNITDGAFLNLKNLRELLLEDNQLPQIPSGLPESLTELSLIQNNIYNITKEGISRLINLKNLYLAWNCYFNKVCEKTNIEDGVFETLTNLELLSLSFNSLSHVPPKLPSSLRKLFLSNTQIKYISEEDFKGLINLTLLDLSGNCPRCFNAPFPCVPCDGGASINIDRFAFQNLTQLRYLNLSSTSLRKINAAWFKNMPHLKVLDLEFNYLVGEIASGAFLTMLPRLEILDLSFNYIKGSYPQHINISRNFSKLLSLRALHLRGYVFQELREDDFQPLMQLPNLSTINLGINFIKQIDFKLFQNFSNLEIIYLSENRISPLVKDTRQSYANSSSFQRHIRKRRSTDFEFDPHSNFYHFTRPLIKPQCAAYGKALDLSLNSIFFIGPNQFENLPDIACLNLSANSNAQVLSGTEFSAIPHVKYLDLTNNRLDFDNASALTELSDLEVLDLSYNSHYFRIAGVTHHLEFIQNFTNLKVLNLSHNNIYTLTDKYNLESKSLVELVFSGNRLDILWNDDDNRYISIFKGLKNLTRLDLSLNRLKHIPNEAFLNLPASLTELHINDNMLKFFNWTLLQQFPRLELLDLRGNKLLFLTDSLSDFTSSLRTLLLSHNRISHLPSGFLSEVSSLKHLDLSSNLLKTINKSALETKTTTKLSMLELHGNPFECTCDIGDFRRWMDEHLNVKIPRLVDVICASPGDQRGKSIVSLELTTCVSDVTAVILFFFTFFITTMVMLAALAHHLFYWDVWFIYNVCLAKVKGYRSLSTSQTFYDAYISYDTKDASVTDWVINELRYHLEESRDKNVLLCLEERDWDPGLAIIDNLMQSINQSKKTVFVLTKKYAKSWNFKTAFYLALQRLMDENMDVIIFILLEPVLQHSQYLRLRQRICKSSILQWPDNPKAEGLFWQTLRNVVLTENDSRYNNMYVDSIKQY
Description: as §1, §2

human TLR7 = target: T3, human TLR7 (Homo sapiens, UniProt Q9NYK1); assay: TLR7 inhibition reporter assay (HEK-Blue SEAP reporter, gardiquimod stimulation); conditions: HEK-Blue cells overexpressing human TLR7, SEAP reporter, gardiquimod 7.5 μM, 22 hour incubation
T3 construct: host or cells: HEK-Blue cells
T3 sequence (Q9NYK1 27-1049): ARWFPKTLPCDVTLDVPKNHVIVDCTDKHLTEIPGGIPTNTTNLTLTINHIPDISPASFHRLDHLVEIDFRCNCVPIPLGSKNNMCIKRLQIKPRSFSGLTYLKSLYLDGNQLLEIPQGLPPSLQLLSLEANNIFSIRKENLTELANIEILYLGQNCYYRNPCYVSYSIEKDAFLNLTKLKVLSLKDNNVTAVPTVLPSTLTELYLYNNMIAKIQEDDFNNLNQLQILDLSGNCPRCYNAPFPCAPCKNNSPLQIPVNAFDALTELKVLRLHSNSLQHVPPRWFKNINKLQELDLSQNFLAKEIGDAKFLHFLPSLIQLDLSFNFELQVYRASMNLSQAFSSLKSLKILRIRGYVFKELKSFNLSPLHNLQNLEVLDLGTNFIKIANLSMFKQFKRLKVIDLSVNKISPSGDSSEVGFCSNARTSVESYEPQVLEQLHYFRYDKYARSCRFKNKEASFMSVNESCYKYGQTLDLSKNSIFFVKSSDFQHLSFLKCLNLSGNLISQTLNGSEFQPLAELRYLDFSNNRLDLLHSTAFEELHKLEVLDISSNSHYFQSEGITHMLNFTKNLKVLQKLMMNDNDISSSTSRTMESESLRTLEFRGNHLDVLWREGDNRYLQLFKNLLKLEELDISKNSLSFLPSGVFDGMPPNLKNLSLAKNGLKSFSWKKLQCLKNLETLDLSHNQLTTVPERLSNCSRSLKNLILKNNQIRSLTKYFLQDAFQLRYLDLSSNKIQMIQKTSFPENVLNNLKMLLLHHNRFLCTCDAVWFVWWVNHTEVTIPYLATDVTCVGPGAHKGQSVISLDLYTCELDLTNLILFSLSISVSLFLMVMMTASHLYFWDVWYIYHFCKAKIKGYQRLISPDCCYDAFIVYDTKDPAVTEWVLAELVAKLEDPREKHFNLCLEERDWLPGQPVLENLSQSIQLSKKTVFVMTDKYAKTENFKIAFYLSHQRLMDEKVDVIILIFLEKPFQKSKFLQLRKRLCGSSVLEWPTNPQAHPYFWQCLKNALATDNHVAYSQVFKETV
Description: as §1, §2

| IC50 (human TLR9) | IC50 (human TLR8) | IC50 (human TLR7) | SMILES |
| --- | --- | --- | --- |
| 5230 nM | 29 nM | 24.7 nM | Cc1nc(-c2[nH]c3ccc(C4CCNCC4)cc3c2C(C)C)cn(C)c1=O [Example 12, 5-(3-isopropyl-5-(piperidin-4-yl)-1H-indol-2-yl)-1,3-dimethylpyrazin-2(1H)-one] |
| 593 nM | 33.9 nM | 18.2 nM | CC(C)c1c(-c2cc(F)c(=O)n(C)c2)[nH]c2ccc(C3CCNCC3)cc12 [Example 13, 3-fluoro-5-(3-isopropyl-5-(piperidin-4-yl)-1H-indol-2-yl)-1-methylpyridin-2(1H)-one] |
| 1650 nM | 3.6 nM | 3.5 nM | Cc1c(-c2[nH]c3ccc(C4CCNCC4)cc3c2C(C)C)cn(C)c(=O)c1C [Example 14, 5-(3-isopropyl-5-(piperidin-4-yl)-1H-indol-2-yl)-1,3,4-trimethylpyridin-2(1H)-one] |
| 179 nM | 3.3 nM | 1.9 nM | CCn1cc(-c2[nH]c3ccc(C4CCNCC4)cc3c2C(C)C)cc(C)c1=O [Example 15, 1-ethyl-5-(3-isopropyl-5-(piperidin-4-yl)-1H-indol-2-yl)-3-methylpyridin-2(1H)-one] |
| 914 nM | 173 nM | 302 nM | CC(C)c1c(-c2ccc(=O)n(C(C)C)c2)[nH]c2ccc(C3CCNCC3)cc12 [Example 16, 1-isopropyl-5-(3-isopropyl-5-(piperidin-4-yl)-1H-indol-2-yl)pyridin-2(1H)-one] |
| 597 nM | 12.2 nM | 21.1 nM | Cc1c(-c2[nH]c3ccc(C4CCNCC4)cc3c2C(C)C)nn(C)c(=O)c1C [Example 17, 6-(3-isopropyl-5-(piperidin-4-yl)-1H-indol-2-yl)-2,4,5-trimethylpyridazin-3(2H)-one] |
| 6650 nM | 14.7 nM | 18.3 nM | CCn1nc(-c2[nH]c3ccc(C4CCNCC4)cc3c2C(C)C)cc(C)c1=O [Example 18, 2-ethyl-6-(3-isopropyl-5-(piperidin-4-yl)-1H-indol-2-yl)-4-methylpyridazin-3(2H)-one] |
| 792 nM | 39.7 nM | 25.7 nM | Cc1c(-c2[nH]c3ccc(C4CCNCC4)cc3c2C(C)C)cn(C)c(=O)c1N [Example 19, 3-amino-5-(3-isopropyl-5-(piperidin-4-yl)-1H-indol-2-yl)-1,4-dimethylpyridin-2(1H)-one] |
| 1790 nM | 17 nM | 6 nM | COc1cc(-c2[nH]c3ccc(C4CCNCC4)cc3c2C(C)C)cn(C)c1=O [Example 20, 5-(3-isopropyl-5-(piperidin-4-yl)-1H-indol-2-yl)-3-methoxy-1-methylpyridin-2(1H)-one] |
| 6540 nM | 263 nM | 105 nM | CC(C)c1c(-c2cn(C)c(=O)n(C)c2=O)[nH]c2ccc(C3CCNCC3)cc12 [Example 21, 5-(3-isopropyl-5-(piperidin-4-yl)-1H-indol-2-yl)-1,3-dimethylpyrimidine-2,4(1H,3H)-dione] |
| 2550 nM | 10.7 nM | 1.1 nM | CC(C)c1c(-c2cc(Cl)c(=O)n(C)c2)[nH]c2ccc(C3CCNCC3)cc12 [Example 22, 3-chloro-5-(3-isopropyl-5-(piperidin-4-yl)-1H-indol-2-yl)-1-methylpyridin-2(1H)-one] |
| 6270 nM | 15.1 nM | 62.8 nM | Cc1c(-c2[nH]c3ccc(C4CCNCC4)cc3c2C(C)C)cc(C#N)c(=O)n1C [Example 23, 5-(3-isopropyl-5-(piperidin-4-yl)-1H-indol-2-yl)-1,6-dimethyl-2-oxo-1,2-dihydropyridine-3-carbonitrile] |
| 3760 nM | 10.7 nM | 75.9 nM | Cc1c(-c2[nH]c3ccc(C4CCNCC4)cc3c2C(C)C)cn(C)c(=O)c1C#N [Example 24, 5-(3-isopropyl-5-(piperidin-4-yl)-1H-indol-2-yl)-1,4-dimethyl-2-oxo-1,2-dihydropyridine-3-carbonitrile] |
| 1370 nM | 7.8 nM | 40.3 nM | CCc1cc(-c2[nH]c3ccc(C4CCNCC4)cc3c2C(C)C)c(C)n(C)c1=O [Example 25, 3-ethyl-5-(3-isopropyl-5-(piperidin-4-yl)-1H-indol-2-yl)-1,6-dimethylpyridin-2(1H)-one] |
